Data published in publication PMC9226124, “Macrocycle-stabilization of its interaction with 14-3-3 increases plasma membrane localization and activity of CFTR” (Nature Communications, 2022).
“Also recorded” adds a separate entry of the source.

Experiments:
[1] = molecular target: T1, 14-3-3/full-length CFTR interaction (Homo sapiens, UniProt P13569, DEL508-508); experiment: Immunoprecipitation (pull-down) from HEK293 cells expressing F508del-CFTR; type: cell-based; details: 24 h, 10 μM
T1 construct: expressed in transfected cells; host or cells: HEK 293 cells expressing F508del-CFTR (Carlile et al. 2015)
Method: Background polarization was subtracted from all values, n = 3 technical replicates. g Immunoprecipitation study to show the effect of CY007424 on the interaction between of CFTR and 14-3-3 proteins. CFTR and separately 14-3-3 immunoprecipitation from HEK293 cells expressing F508del-CFTR after 24 h of CY007424 (10μM) (424) or vehicle alone (CON). LYS: cellular lysate prior to preclear, SUP: supernatant after specific bead incubation, PC: second preclear, LW: last wash after the immunoprecipitation IP are the specific antibody beads. IP, upper blot: probed with CFTR AB, lower blot: probed with 14-3-3 AB. Source data are provided as a Source Data file.
CFTR monoclonal-mAb (M3A7, ab270238 abcam) and 14-3-3 monoclonal-Rbt-Ab (Y62, ab32560 abcam) were separately covalently linked to Protein A–Sepharose (Pharmacia, NJ, U.S.A.) by cross-linking with dimethyl pimelimidate (DMP) utilizing standard procedures.
Briefly, Protein A–Sepharose beads were washed two times in 0.2 M sodium borate, pH 9.0 for 5 min each. The beads were then mixed with antibody (for 1 mL of beads use 0.5 mg of antibody). These were placed on a rotator and mixed continuously for 2 h at room temperature (RT). The beads were washed with sodium borate twice, followed by one wash with 0.2 M triethanolamine, pH 8.5. An equal volume of 40 mM DMP in 0.2 M triethanolamine was added. The mixture was mixed for 1 h at RT and the beads then collected. The beads were incubated in 0.2 M ethanolamine, pH 8.2 for 5 min at RT. Beads were washed with the sodium borate solution, and stored at 4 °C until use. Beads were rinsed in lysis buffer before use.
Once HEK 293 cells expressing F508del-CFTR (cells earlier described by Carlile et al. 2015)[29] were treated, they were harvested and immunoprecipitated as follows. Cells were washed twice in sterile TBS, trypsin-treated and transferred to a Falcon tube with media and sera and centrifuged at 800 g at RT for 5 min. Pellets were washed twice in TBS prewarmed to 37 °C and centrifuged at 800–1000 g for 5 min at 4 °C. […]

[2] = molecular target: T2, FITC-labeled CFTRpS753pS768 peptide (no 14-3-3) (Homo sapiens, UniProt P13569); experiment: Dose-response FP control assay in the absence of 14-3-3; type: binding; details: No 14-3-3
T2 construct: made in house; host or cells: synthetic peptide
Method: The 14-3-3β concentration used for the FP screening assay was 10 μM (dashed line). c HTS FP assay of the Cyclenium library. The samples contain 100 nM of FITC-CFTR_pS753pS768 peptide, 10 μM 14-3-3β, and 50 μM compound. FC-A (100 µM) was added as a positive control and DMSO as the negative control. Hit compounds are defined as a polarization increase which is higher than 20% of the response of FC-A. Red squares are compounds that appeared positive in the negative control without 14-3-3. […] Background polarization was subtracted from all values, n = 3 technical replicates. Compounds selected for further analysis are indicated with an asterisk. e Polarization in the absence of 14-3-3. […] Source data are provided as a Source Data file.
The FITC-labeled peptides were dissolved in FP buffer (10 mM HEPES pH 7.4, 150 mM NaCl, 0.1% Tween20, 1 mg/mL BSA) to a final concentration of 100 nM or 10 nM. For the dose-response assays, a 14-3-3β concentration of 10 μM was used while titrating the compounds in a two-times dilution series and, for the other assays, a dilution series of 14-3-3β was made with constant concentration of compound. The dilution series were made in 384 Corning Black Round Bottom well plates and their polarization was measured with a Tecan Infinite F500 plate reader (ex. = 485 nm, em. = 535 nm). The method of fitting of the curves was: “log(agonist) vs. response – Variable slope (four parameters)” from GraphPad Prism. The equation is Y = Bottom + (Top-Bottom)/(1 + 10^((LogEC50-X)*HillSlope)).

T2 sequence (P13569 747-774 limits assumed): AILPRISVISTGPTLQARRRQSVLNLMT
T1 sequence (P13569 with tags, fused parts or gaps DEL508-508): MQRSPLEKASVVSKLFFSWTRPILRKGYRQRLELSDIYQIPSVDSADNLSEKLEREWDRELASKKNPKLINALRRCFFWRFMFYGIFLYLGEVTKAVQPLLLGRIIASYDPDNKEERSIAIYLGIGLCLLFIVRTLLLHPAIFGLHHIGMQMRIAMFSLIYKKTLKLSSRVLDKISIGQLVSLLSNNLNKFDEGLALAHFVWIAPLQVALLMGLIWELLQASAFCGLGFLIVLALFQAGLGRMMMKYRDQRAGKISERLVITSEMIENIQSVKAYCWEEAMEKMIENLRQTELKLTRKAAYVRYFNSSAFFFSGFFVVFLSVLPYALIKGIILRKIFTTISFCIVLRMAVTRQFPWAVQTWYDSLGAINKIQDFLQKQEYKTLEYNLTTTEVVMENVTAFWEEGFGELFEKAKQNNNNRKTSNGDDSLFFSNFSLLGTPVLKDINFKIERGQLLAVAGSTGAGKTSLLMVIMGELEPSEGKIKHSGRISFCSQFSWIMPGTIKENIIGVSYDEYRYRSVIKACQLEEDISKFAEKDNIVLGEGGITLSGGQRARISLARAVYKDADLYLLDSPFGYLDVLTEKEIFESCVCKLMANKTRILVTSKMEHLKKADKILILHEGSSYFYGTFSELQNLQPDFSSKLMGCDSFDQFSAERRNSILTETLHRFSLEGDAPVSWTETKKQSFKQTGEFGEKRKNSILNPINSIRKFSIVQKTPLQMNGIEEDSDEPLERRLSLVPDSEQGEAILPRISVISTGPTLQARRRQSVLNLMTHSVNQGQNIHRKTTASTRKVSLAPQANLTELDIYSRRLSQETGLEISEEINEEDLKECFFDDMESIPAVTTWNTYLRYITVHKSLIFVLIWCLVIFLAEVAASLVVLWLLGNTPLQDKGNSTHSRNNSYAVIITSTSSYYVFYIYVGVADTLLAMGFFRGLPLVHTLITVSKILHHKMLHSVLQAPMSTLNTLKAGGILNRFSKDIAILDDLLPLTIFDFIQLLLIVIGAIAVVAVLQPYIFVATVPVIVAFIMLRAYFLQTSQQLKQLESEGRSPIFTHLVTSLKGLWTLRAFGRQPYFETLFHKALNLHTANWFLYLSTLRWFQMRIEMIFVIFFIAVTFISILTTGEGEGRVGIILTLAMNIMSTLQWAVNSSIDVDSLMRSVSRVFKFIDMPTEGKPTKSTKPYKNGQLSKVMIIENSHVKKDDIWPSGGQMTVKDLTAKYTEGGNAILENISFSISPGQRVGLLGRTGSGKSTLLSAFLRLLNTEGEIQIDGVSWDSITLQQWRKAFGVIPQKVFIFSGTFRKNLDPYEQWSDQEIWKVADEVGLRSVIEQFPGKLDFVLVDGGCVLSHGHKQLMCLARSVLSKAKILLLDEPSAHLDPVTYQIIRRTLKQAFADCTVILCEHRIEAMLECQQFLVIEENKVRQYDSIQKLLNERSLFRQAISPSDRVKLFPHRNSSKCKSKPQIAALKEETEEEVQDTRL

FP signal ([2]; compound 476.8 pM)	FP signal ([2]; compound 953.7 pM)	FP signal ([2]; compound 1.90735e-9 M)	FP signal ([2]; compound 3.8147e-9 M)	FP signal ([2]; compound 7.6294e-9 M)	FP signal ([2]; compound 1.52588e-8 M)	FP signal ([2]; compound 3.05176e-8 M)	FP signal ([2]; compound 6.10352e-8 M)	FP signal ([2]; compound 1.2207e-7 M)	FP signal ([2]; compound 2.44141e-7 M)	FP signal ([2]; compound 4.88281e-7 M)	FP signal ([2]; compound 9.76563e-7 M)	FP signal ([2]; compound 1.95313e-6 M)	FP signal ([2]; compound 3.90625e-6 M)	FP signal ([2]; compound 7.8125e-6 M)	FP signal ([2]; compound 1.5625e-5 M)	FP signal ([2]; compound 3.125e-5 M)	FP signal ([2]; compound 6.25e-5 M)	FP signal ([2]; compound 0.000125 M)	FP signal ([2]; compound 0.00025 M)	SMILES	further results
4	5	5	7	4	7	6	5	5	7	7	7	6	12	27	52	122	193	244	263	N=C(N)NCCCC1NCc2ccccc2Sc2ccccc2CNC(=O)C(Cc2ccc(O)cc2)NC(=O)C(CCCN)NC1=O (stereo not shown) [CY007424]	stabilizing effect on the 14-3-3/CFTR interaction in cells (pull-down) [1]: stabilizing effect; also recorded: increased CFTR binding to 14-3-3; FP signal ([2]; compound 0.0005 M): 257; FP signal ([2]; compound 0.001 M): 271
1	3	2	5	5	4	6	6	3	4	4	5	5	6	10	13	24	59	124	186	CC1NC(=O)C(CCCNC(=N)N)NC(=O)C2CCCN2Cc2cccc(c2)-c2ccccc2CNC(=O)C(CCCNC(=N)N)NC1=O (stereo not shown) [CY007476]	stabilizing effect on the 14-3-3/CFTR interaction in cells (pull-down) [1]: did not show a stabilizing effect; also recorded: did not enhance binding of 14-3-3; FP signal ([2]; compound 0.0005 M): 230; FP signal ([2]; compound 0.001 M): 257
4	5	5	6	4	6	3	5	8	6	5	5	6	7	7	9	18	35	83	142	CN1CC(=O)NC(CCCNC(=N)N)C(=O)NC(CCC(N)=O)C(=O)NC(CCCNC(=N)N)C(=O)NCc2ccccc2-c2cccc(c2)C1 (stereo not shown) [CY007491]	stabilizing effect on the 14-3-3/CFTR interaction in cells (pull-down) [1]: did not show a stabilizing effect; also recorded: did not enhance binding of 14-3-3; FP signal ([2]; compound 0.0005 M): 193; FP signal ([2]; compound 0.001 M): 240

SMILES	FP signal ([2]; compound 476.8 pM)	FP signal ([2]; compound 953.7 pM)	FP signal ([2]; compound 1.90735e-9 M)	FP signal ([2]; compound 3.8147e-9 M)	FP signal ([2]; compound 7.6294e-9 M)	FP signal ([2]; compound 1.52588e-8 M)	FP signal ([2]; compound 3.05176e-8 M)	FP signal ([2]; compound 6.10352e-8 M)	FP signal ([2]; compound 1.2207e-7 M)	FP signal ([2]; compound 2.44141e-7 M)	FP signal ([2]; compound 4.88281e-7 M)	FP signal ([2]; compound 9.76563e-7 M)	FP signal ([2]; compound 1.95313e-6 M)	FP signal ([2]; compound 3.90625e-6 M)	FP signal ([2]; compound 7.8125e-6 M)	FP signal ([2]; compound 1.5625e-5 M)	FP signal ([2]; compound 3.125e-5 M)	FP signal ([2]; compound 6.25e-5 M)	FP signal ([2]; compound 0.000125 M)	FP signal ([2]; compound 0.00025 M)	further results
N=C(N)NCCCC1NC(=O)C(CCC(N)=O)NC(=O)C(CCCNC(=N)N)NC(=O)C2CCCN2Cc2cccc(c2)-c2ccccc2CNC1=O (stereo not shown) [CY007458]	6	5	4	5	7	4	6	5	4	5	6	6	5	8	11	15	33	65	124	179	FP signal ([2]; compound 0.0005 M): 221; FP signal ([2]; compound 0.001 M): 252
